Several values for one entry are separate records, joined by “and”; a condition that tells them apart may be missing. Identical values can stand only once. Toxic doses and inconclusive results are not listed. Rule for the calls: active = survival T/C of 150% or more; inactive = T/C below 125% in these data.
System: P388 leukemia ip, CD2F1 mice, survival T/C
Experiment: NCI In Vivo Anticancer Drug Screen. Data for tumor model P388 Leukemia (intraperitoneal) in CD2F1 (CDF1) mice
Settings: endpoint: median survival time, higher = longer survival
Method in brief: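 Mice carrying the transplanted tumor received test compound or vehicle. Survival was recorded in each group, and the value is the treated-group measurement divided by that of the vehicle-treated control group.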

[1] = dose: 25.0 mg/kg/injection, schedule: Q01DX009 (ip), vehicle: saline with Tween-80
[2] = dose: 50.0 mg/kg/injection, schedule: Q01DX009 (ip), vehicle: saline with Tween-80
[3] = dose: 60.0 mg/kg/injection, schedule: Q01DX005 (ip), vehicle: Klucel (hydroxypropylcellulose) (HPC)
[4] = dose: 120.0 mg/kg/injection, schedule: Q01DX005 (ip), vehicle: Klucel (hydroxypropylcellulose) (HPC)
[5] = dose: 60.0 mg/kg/injection, schedule: Q01DX005 (ip), vehicle: saline with Tween-80
[6] = dose: 120.0 mg/kg/injection, schedule: Q01DX005 (ip), vehicle: saline with Tween-80
[7] = dose: 50.0 mg/kg/injection, schedule: Q01DX005 (ip), vehicle: saline
[8] = dose: 100.0 mg/kg/injection, schedule: Q01DX005 (ip), vehicle: saline
[9] = dose: 50.0 mg/kg/injection, schedule: Q01DX005 (ip), vehicle: saline with Tween-80
[10] = dose: 100.0 mg/kg/injection, schedule: Q01DX005 (ip), vehicle: saline with Tween-80
[11] = dose: 200.0 mg/kg/injection, schedule: Q01DX005 (ip), vehicle: saline with Tween-80

Measured: T/C

COC(=O)/C(C)=C/C1N=C1c1ccccc1 (stereo not given)
inactive: dose: 25.0 mg/kg/injection, schedule: Q01DX001 (ip), vehicle: saline with Tween-80 114 % of control | dose: 50.0 mg/kg/injection, schedule: Q01DX001 (ip), vehicle: saline with Tween-80 118 % of control | dose: 100.0 mg/kg/injection, schedule: Q01DX001 (ip), vehicle: saline with Tween-80 123 % of control

CCCc1c(Cl)nc(Cl)nc1Cl
inactive: [1] 104 % of control | dose: 25.0 mg/kg/injection, schedule: Q04DX003 (ip), vehicle: saline with Tween-80 113 % of control | [2] 118 % of control | dose: 50.0 mg/kg/injection, schedule: Q04DX003 (ip), vehicle: saline with Tween-80 121 % of control | dose: 66.0 mg/kg/injection, schedule: Q01DX009 (ip), vehicle: saline with Tween-80 116 % of control | dose: 100.0 mg/kg/injection, schedule: Q01DX009 (ip), vehicle: saline with Tween-80 100 % of control | dose: 100.0 mg/kg/injection, schedule: Q04DX003 (ip), vehicle: saline with Tween-80 113 % of control

Cc1cccc(N2C(=O)CSC2=S)c1
inactive: dose: 12.5 mg/kg/injection, schedule: Q01DX009 (ip), vehicle: saline with Tween-80 109 % of control | [1] 100 % of control | [2] 103 % of control

CCCNCC(O)COc1ccc2c3c(c(=O)oc2c1)CCC3 (stereo not given)
inactive: [3] 96 % of control | [4] 96 % of control

Cc1ccccc1NC(=O)C(=O)C(C#N)c1c(Cl)cccc1Cl (stereo not given)
inactive: [5] 114 % of control | [6] 100 % of control | dose: 240.0 mg/kg/injection, schedule: Q01DX005 (ip), vehicle: saline with Tween-80 99 % of control

CC1(C)C(C)(C)C1(Br)Br
inactive: dose: 12.5 mg/kg/injection, schedule: Q01DX009 (ip), vehicle: saline + alcohol 102 % of control | dose: 25.0 mg/kg/injection, schedule: Q01DX009 (ip), vehicle: saline + alcohol 111 % of control | dose: 50.0 mg/kg/injection, schedule: Q01DX009 (ip), vehicle: saline + alcohol 103 % of control | dose: 100.0 mg/kg/injection, schedule: Q01DX009 (ip), vehicle: saline + alcohol 100 % of control and 95 % of control | dose: 200.0 mg/kg/injection, schedule: Q01DX009 (ip), vehicle: saline + alcohol 89 % of control

Cc1cc[n+](-c2c3c(nc4ccccc24)-c2ccccc2C(C)(C)C3)cc1
inactive: dose: 12.5 mg/kg/injection, schedule: Q01DX005 (ip), vehicle: saline 100 % of control | dose: 25.0 mg/kg/injection, schedule: Q01DX005 (ip), vehicle: saline 91 % of control | [7] 94 % of control | [8] 106 % of control

O=CNCc1ccc(S(=O)(=O)F)cc1
inactive: dose: 12.5 mg/kg/injection, schedule: Q01DX009 (ip), vehicle: other 93 % of control | dose: 25.0 mg/kg/injection, schedule: Q01DX009 (ip), vehicle: other 92 % of control | dose: 50.0 mg/kg/injection, schedule: Q01DX009 (ip), vehicle: other 99 % of control | dose: 100.0 mg/kg/injection, schedule: Q01DX009 (ip), vehicle: other 100 % of control

COC1=CC(=O)C([C@@H]2COc3cc(O)ccc3C2)=CC1=O
inactive: dose: 3.75 mg/kg/injection, schedule: Q01DX009 (ip), vehicle: Klucel (hydroxypropylcellulose) (HPC) 95 % of control | dose: 7.5 mg/kg/injection, schedule: Q01DX009 (ip), vehicle: Klucel (hydroxypropylcellulose) (HPC) 99 % of control | dose: 15.0 mg/kg/injection, schedule: Q01DX009 (ip), vehicle: Klucel (hydroxypropylcellulose) (HPC) 95 % of control | dose: 30.0 mg/kg/injection, schedule: Q01DX009 (ip), vehicle: Klucel (hydroxypropylcellulose) (HPC) 98 % of control

CCCC[NH-].CCCC[NH-].[I][Pt+2][I]
inactive: dose: 0.78 mg/kg/injection, schedule: Q01DX009 (ip), vehicle: other 103 % of control and 120 % of control

COC1(c2ccc(C)cc2)OC12CCN(C)CC2 (stereo not given)
inactive: [9] 106 % of control | [10] 95 % of control | [11] 106 % of control

N#CCCN(CCCN1CCOCC1)CN1C(=O)c2ccccc2C1=O
inactive: dose: 50.0 mg/kg/injection, schedule: Q01DX009 (ip), vehicle: Klucel (hydroxypropylcellulose) (HPC) 98 % of control | dose: 100.0 mg/kg/injection, schedule: Q01DX009 (ip), vehicle: Klucel (hydroxypropylcellulose) (HPC) 91 % of control | dose: 400.0 mg/kg/injection, schedule: Q01DX009 (ip), vehicle: Klucel (hydroxypropylcellulose) (HPC) 99 % of control

CCOC(=O)c1c(Cl)c(CC)c(N=[N+]=[N-])n2c1nc1ccccc12
inactive: [5] 101 % of control | [6] 101 % of control

COc1ccc(C[C@H]2c3c(cc4c(c3OC)OCO4)CCN2C)c(CO)c1OC
inactive: dose: 9.38 mg/kg/injection, schedule: Q01DX005 (ip), vehicle: Klucel (hydroxypropylcellulose) (HPC) 100 % of control | dose: 18.75 mg/kg/injection, schedule: Q01DX005 (ip), vehicle: Klucel (hydroxypropylcellulose) (HPC) 98 % of control | dose: 37.5 mg/kg/injection, schedule: Q01DX005 (ip), vehicle: Klucel (hydroxypropylcellulose) (HPC) 94 % of control | dose: 75.0 mg/kg/injection, schedule: Q01DX005 (ip), vehicle: Klucel (hydroxypropylcellulose) (HPC) 99 % of control

COc1cccc(/C=C/S(=O)(=O)Cc2ccccc2)c1OC
inactive: [9] 93 % of control | [10] 100 % of control | [11] 91 % of control

NNS(=O)(=O)CCC(N)C(=O)O (stereo not given)
inactive: dose: 12.5 mg/kg/injection, schedule: Q01DX009 (ip), vehicle: water 100 % of control | dose: 25.0 mg/kg/injection, schedule: Q01DX009 (ip), vehicle: water 107 % of control | dose: 50.0 mg/kg/injection, schedule: Q01DX009 (ip), vehicle: water 107 % of control | dose: 100.0 mg/kg/injection, schedule: Q01DX009 (ip), vehicle: water 98 % of control

CCOC(=O)C(C)(C)S(=O)(=O)Nc1ccccc1
inactive: [3] 105 % of control | [4] 102 % of control | dose: 240.0 mg/kg/injection, schedule: Q01DX005 (ip), vehicle: Klucel (hydroxypropylcellulose) (HPC) 102 % of control

N#CCCP(=O)(O)CCC#N
inactive: dose: 60.0 mg/kg/injection, schedule: Q01DX005 (ip), vehicle: saline 100 % of control | dose: 120.0 mg/kg/injection, schedule: Q01DX005 (ip), vehicle: saline 100 % of control | dose: 240.0 mg/kg/injection, schedule: Q01DX005 (ip), vehicle: saline 90 % of control

CC1(O)C=CC(=O)C=C1
inactive: dose: 1.56 mg/kg/injection, schedule: Q01DX009 (ip), vehicle: distilled water + Tween-80 103 % of control | dose: 3.13 mg/kg/injection, schedule: Q01DX009 (ip), vehicle: distilled water + Tween-80 102 % of control | dose: 6.25 mg/kg/injection, schedule: Q01DX009 (ip), vehicle: distilled water + Tween-80 109 % of control | dose: 12.5 mg/kg/injection, schedule: Q01DX009 (ip), vehicle: distilled water + Tween-80 109 % of control

CCOc1cccc2c1C(=O)c1cccc(OCC)c1C2(O)C#Cc1ccccc1 (stereo not given)
inactive: dose: 100.0 mg/kg/injection, schedule: Q04DX002 (ip), vehicle: saline with Tween-80 90 % of control | dose: 200.0 mg/kg/injection, schedule: Q04DX002 (ip), vehicle: saline with Tween-80 87 % of control | dose: 400.0 mg/kg/injection, schedule: Q04DX002 (ip), vehicle: saline with Tween-80 86 % of control

C=COC(=O)C(Cc1ccc(F)cc1)NC(=O)OCc1ccccc1 (stereo not given)
inactive: dose: 100.0 mg/kg/injection, schedule: Q04DX002 (ip), vehicle: Klucel (hydroxypropylcellulose) (HPC) 103 % of control | dose: 200.0 mg/kg/injection, schedule: Q04DX002 (ip), vehicle: Klucel (hydroxypropylcellulose) (HPC) 97 % of control | dose: 400.0 mg/kg/injection, schedule: Q04DX002 (ip), vehicle: Klucel (hydroxypropylcellulose) (HPC) 97 % of control

CCC(C)N(CCNc1cc(OC)cc2cccnc12)CCC(C)C (stereo not given)
inactive: [7] 100 % of control | [8] 97 % of control

C=C(C)C1C/C=C2/C(=O)OC(CC3(C)CC(=O)C(CC(=O)C1)O3)C2O (stereo not given)
inactive: dose: 4.0 mg/kg/injection, schedule: Q01DX009 (ip), vehicle: Klucel (hydroxypropylcellulose) (HPC) 101 % of control | dose: 8.0 mg/kg/injection, schedule: Q01DX009 (ip), vehicle: Klucel (hydroxypropylcellulose) (HPC) 101 % of control | dose: 16.0 mg/kg/injection, schedule: Q01DX009 (ip), vehicle: Klucel (hydroxypropylcellulose) (HPC) 104 % of control | dose: 32.0 mg/kg/injection, schedule: Q01DX009 (ip), vehicle: Klucel (hydroxypropylcellulose) (HPC) 101 % of control

CC(C)CC(NCc1ccccc1)C(=O)O (stereo not given)
inactive: [9] 95 % of control | [10] 100 % of control | [11] 95 % of control
